Assay results reported in EP4759807A1, “PROTEOLYSIS TARGETING CHIMERA COMPOUND FOR DEGRADING IRAK4 AND USE THEREOF” (Shenzhen Zhongge Biological Technology Co., Ltd., priority 2023, dated 2025).
Where a name gives a salt, the structure may show the parent alone.

Key:
IRAK4 [1] = molecular target: T1, IRAK4 (Homo sapiens, UniProt Q9NWZ3); test: WB detection of proteolysis (Western Blot, THP-1 cells); assay type: cell-based; conditions: Western Blot, THP-1 cells, 24 h; for DC50: read-out: DC50; for Dmax: read-out: Dmax
T1 sequence (Q9NWZ3 1-460): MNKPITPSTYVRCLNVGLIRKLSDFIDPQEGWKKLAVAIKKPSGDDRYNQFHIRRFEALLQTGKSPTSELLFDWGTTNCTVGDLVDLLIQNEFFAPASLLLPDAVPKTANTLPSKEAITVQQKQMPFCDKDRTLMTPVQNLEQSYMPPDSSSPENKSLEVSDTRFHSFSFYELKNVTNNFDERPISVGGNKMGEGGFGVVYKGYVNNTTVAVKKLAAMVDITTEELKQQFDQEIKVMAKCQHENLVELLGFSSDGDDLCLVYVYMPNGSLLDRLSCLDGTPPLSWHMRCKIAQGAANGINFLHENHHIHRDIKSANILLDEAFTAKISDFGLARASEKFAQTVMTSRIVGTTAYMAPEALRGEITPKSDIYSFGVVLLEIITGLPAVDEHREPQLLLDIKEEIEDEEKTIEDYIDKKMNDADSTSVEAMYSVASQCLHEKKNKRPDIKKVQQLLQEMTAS
Outline: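 IRAK4 level in RIPA lysates read by Western blot with Odyssey imaging; values from bell-shaped non-linear fit with two four-parameter sections (Plateau1, Plateau2, Dip, LogEC50_1/2, nH1/2).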

IRAK4 [2] = molecular target: T1, IRAK4; test: Hibit fluorescence detection of proteolysis (IRAK4-HiBiT in HEK293T cells); assay type: cell-based; design: host or cells: HEK293T (ATCC); conditions: for Dmax: HEK-293T; for DC50: IRAK4-HiBiT, HEK293T cells, 24 h
Outline: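 Degradation read-out: luminescence from lytic HiBiT detection (15 min, room temperature) after 24 h compound exposure (37 °C, 5% CO2) of HEK293T cells transiently expressing IRAK4 fused to a HiBiT tag. Data fitted to a bell-shaped four-parameter model giving two EC50 values.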

| SMILES | DC50 (IRAK4 [1]) | Dmax (IRAK4 [1]) | Dmax (IRAK4 [2]) | DC50 (IRAK4 [2]) |
| --- | --- | --- | --- | --- |
| Cn1c(=O)n(C2CCC(=O)NC2=O)c2cccc(N3CCC(N4CCN(C[C@H]5CC[C@H](n6cc(-n7cc(-c8cnn9ccc(N%10CCC(C)(O)CC%10)nc89)nn7)c(C(F)F)n6)CC5)CC4)CC3)c21 (stereo partly shown) [Example 124] | < 10 nM | 60 to 70% | > 80% | < 0.5 nM |
| Cn1c(=O)n(C2CCC(=O)NC2=O)c2cccc(N3CCC(N4CCN(C[C@H]5CC[C@H](n6cc(-n7cc(-c8cnn9ccc(NCCC(C)(C)O)nc89)nn7)c(C(F)F)n6)CC5)CC4)CC3)c21 (stereo partly shown) [Example 125] | < 10 nM | > 70% | > 80% | < 0.5 nM |
| Cn1c(=O)n(C2CCC(=O)NC2=O)c2cccc(N3CCC4(CCN(C[C@H]5CC[C@H](n6cc(-n7cc(-c8cnn9ccc(NCCC(C)(C)O)nc89)nn7)c(C(F)F)n6)CC5)CC4)CC3)c21 (stereo partly shown) [Example 126] | < 10 nM | > 70% | > 80% | < 0.5 nM |
| Cn1c(=O)n(C2CCC(=O)NC2=O)c2cccc(N3CCC(N4CCN(C[C@H]5CC[C@H](n6cc(-n7cc(-c8cnn9ccc(N%10CCNCC%10)nc89)nn7)c(C(F)F)n6)CC5)CC4)CC3)c21 (stereo partly shown) [Example 127, 3-(4-(4-(4-(((1r,4r)-4-(3-(difluoromethyl)-4-(4-(5-(piperazin-1-yl))pyrazolo[1,5-a]pyrimidin-3-yl)-1H-1,2,3-triazol-1-yl)-1H-pyrazol-1-yl)cyclohexyl)methyl)piperazin-1-yl)piperidin-1-yl)-3-methyl-2-oxo-2,3-dihydro-1H-benzo[d]imidazol-1-yl)piperidine-2,6-dione dihydrochloride] | 10 to 30 nM | > 70% | > 80% | < 0.5 nM |
| Cn1c(=O)n(C2CCC(=O)NC2=O)c2cccc(N3CCC4(CCN(C[C@H]5CC[C@H](n6cc(-n7cc(-c8cnn9ccc(N%10CCNCC%10)nc89)nn7)c(C(F)F)n6)CC5)C4)CC3)c21 (stereo partly shown) [Example 128, 3-(4-(2-(((1r,4r)-4-(3-(difluoromethyl)-4-(4-(5-(piperazin-1-yl)pyrazolo[1,5-a]pyrimidin-3-yl)-1H-1,2,3-triazol-1-yl)-1H-pyrazol-1-yl)cyclohexyl)methyl)-2,8-diazaspiro[4.5]dec-8-yl)-3-methyl-2-oxo-2,3-dihydro-1H-benzo[d]imidazol-1-yl)piperidine-2,6-dione dihydrochloride] | < 10 nM | > 70% | > 80% | < 0.5 nM |
| Cn1c(=O)n(C2CCC(=O)NC2=O)c2cccc(N3CCN(C[C@H]4CC[C@H](n5cc(-n6cc(-c7cnn8ccc(N9CCNCC9)nc78)nn6)c(C(F)F)n5)CC4)CC3)c21 (stereo partly drawn) [Example 132, 3-(4-(1R,4R)-4-(3-difluoromethyl)-4-(4-(5-(piperazin-1-yl)pyrazolo[1,5-a]pyrimidin-3-yl)-1H-1,2,3-triazol-1-yl)-1H-pyrazol-1-yl)cyclohexyl)methyl)piperazin-1-yl)-3-methyl-2-oxo-2,3-dihydro-1H-benzoimidazol-1-yl)piperidine-2,6-dione dihydrochloride] | < 10 nM | 60 to 70% | > 80% | 0.5 to 1 nM |
| Cn1c(=O)n(C2CCC(=O)NC2=O)c2cccc(N3CCC(N4CCN(C[C@H]5CC[C@H](n6cc(-n7cc(-c8cnn9ccc(N%10CCC(O)CC%10)nc89)nn7)c(C(F)F)n6)CC5)CC4)CC3)c21 (stereo partly shown) [Example 135] | < 10 nM | > 70% | > 80% | < 0.5 nM |
| Cn1c(=O)n(C2CCC(=O)NC2=O)c2cccc(N3CCC4(CCN(C[C@H]5CC[C@H](n6cc(-n7cc(-c8cnn9ccc(N%10CCC(O)CC%10)nc89)nn7)c(C(F)F)n6)CC5)CC4)CC3)c21 (stereo partly shown) [Example 136] | < 10 nM | > 70% | > 80% | < 0.5 nM |
| Cn1c(=O)n(C2CCC(=O)NC2=O)c2cccc(N3CCC4(CCN(C[C@H]5CC[C@H](n6cc(-n7cc(-c8cnn9ccc(N%10CCC(O)CC%10)nc89)nn7)c(C(F)F)n6)CC5)C4)CC3)c21 (stereo partly shown) [Example 139] | < 10 nM | > 70% | > 80% | < 0.5 nM |
| Cn1c(=O)n(C2CCC(=O)NC2=O)c2cccc(N3CCN(C[C@H]4CC[C@H](n5cc(-n6cc(-c7cnn8ccc(N9CCC(O)CC9)nc78)nn6)c(C(F)F)n5)CC4)CC3)c21 (stereo partly shown) [Example 140] | 10 to 30 nM | > 70% | > 80% | < 0.5 nM |
| Cn1c(=O)n(C2CCC(=O)NC2=O)c2cccc(N3CCN(C[C@H]4CC[C@H](n5cc(-n6cc(-c7cnn8ccc(N9CCC[C@H](O)C9)nc78)nn6)c(C(F)F)n5)CC4)CC3)c21 (stereo partly shown) [Example 141] | < 10 nM | > 70% | > 80% | < 0.5 nM |
| Cn1c(=O)n(C2CCC(=O)NC2=O)c2cccc(N3CCC4(CCN(C[C@H]5CC[C@H](n6cc(-n7cc(-c8cnn9ccc(N%10CCC[C@H](O)C%10)nc89)nn7)c(C(F)F)n6)CC5)CC4)CC3)c21 (stereo partly shown) [Example 142] | < 10 nM | > 70% | > 80% | < 0.5 nM |
| Cn1c(=O)n(C2CCC(=O)NC2=O)c2cccc(N3CCN(C4CCN(C[C@H]5CC[C@H](n6cc(-n7cc(-c8cnn9ccc(N%10CCC[C@H](O)C%10)nc89)nn7)c(C(F)F)n6)CC5)CC4)CC3)c21 (stereo partly shown) [Example 144] | < 10 nM | > 70% | > 80% | < 0.5 nM |
| Cn1c(=O)n(C2CCC(=O)NC2=O)c2cccc(N3CCC4(CCN(C[C@H]5CC[C@H](n6cc(-n7cc(-c8cnn9ccc(N%10CCC[C@H](O)C%10)nc89)nn7)c(C(F)F)n6)CC5)C4)CC3)c21 (stereo partly shown) [Example 145] | < 10 nM | > 70% | > 80% | < 0.5 nM |
| Cn1c(=O)n(C2CCC(=O)NC2=O)c2cccc(N3CCC4(CCN(C[C@H]5CC[C@H](n6cc(-n7cc(-c8cnn9ccc(N[C@H]%10CCCC[C@H]%10O)nc89)nn7)c(C(F)F)n6)CC5)C4)CC3)c21 (stereo partly shown) [Example 147] | 10 to 30 nM | > 70% | > 80% | < 0.5 nM |
| Cn1c(=O)n(C2CCC(=O)NC2=O)c2cccc(N3CCC4(CCN(C[C@H]5CC[C@H](n6cc(-n7cc(-c8cnn9ccc(N[C@H]%10CCCC[C@H]%10O)nc89)nn7)c(C(F)F)n6)CC5)CC4)CC3)c21 (stereo partly shown) [Example 148] | 10 to 30 nM | > 70% | > 80% | < 0.5 nM |
| Cn1c(=O)n(C2CCC(=O)NC2=O)c2cccc(N3CCC4(CCN(C[C@H]5CC[C@H](n6cc(-n7cc(-c8cnn9ccc(N[C@@H]%10CCCC[C@@H]%10O)nc89)nn7)c(C(F)F)n6)CC5)CC4)CC3)c21 (stereo partly shown) [Example 151] | < 10 nM | > 70% | > 80% | < 0.5 nM |
| Cn1c(=O)n(C2CCC(=O)NC2=O)c2cccc(N3CCN(C4CCN(C[C@H]5CC[C@H](n6cc(-n7cc(-c8cnn9ccc(N[C@@H]%10CCCC[C@@H]%10O)nc89)nn7)c(C(F)F)n6)CC5)CC4)CC3)c21 (stereo partly shown) [Example 153] | < 10 nM | > 70% | > 80% | < 0.5 nM |
| Cn1c(=O)n(C2CCC(=O)NC2=O)c2cccc(N3CCC4(CCN(C[C@H]5CC[C@H](n6cc(-n7cc(-c8cnn9ccc(N[C@@H]%10CCCC[C@@H]%10O)nc89)nn7)c(C(F)F)n6)CC5)C4)CC3)c21 (stereo partly shown) [Example 154] | < 10 nM | > 70% | > 80% | < 0.5 nM |
